Converted amounts (≈) assume the structure as drawn. The source made the active and inactive calls. The calls are words filed in the database; no cut-off is given here.
Assays:
[1] = Cmax in Swiss mouse lung at 3 mg/kg, iv measured upto 24 hrs by LC-MS/MS analysis; type: ADME, organism-based; parameters: time < 24 hrs, dose 3 mg/kg, route iv
Klebsiella pneumoniae [2] = experiment: Antibacterial activity against multidrug-resistant Klebsiella pneumoniae NR-48977 assessed as bacterial growth inhibition incubated for 20 to 22 hrs by CLSI based analysis; type: functional; details: time 20-22 hrs
Klebsiella pneumoniae [3] = experiment: Antibacterial activity against Klebsiella pneumoniae ATCC 13883 infected in Swiss albino mouse model of neutropenic lung infection at 10 mg/kg, iv pretreated for 1 hr followed by bacterial infection and measured after 5 hr post infection; type: functional, organism-based; details: time 6.0 hrs
[4] = Ratio of AUC in Lung to plasma in Swiss mouse at 3 mg/kg, iv measured upto 24 hrs by LC-MS/MS analysis; type: ADME, organism-based; details: read-out: Ratio AUC
Enterobacter cloacae = experiment: Antibacterial activity against multidrug-resistant Enterobacter cloacae BAA2341 assessed as bacterial growth inhibition incubated for 20 to 22 hrs by CLSI based analysis; type: functional; details: time 20-22 hrs
[5] = Aqueous solubility of compound at pH 4.5; type: physicochemical; details: buffer
Escherichia coli [6] = experiment: Antibacterial activity against Escherichia coli ATCC 35218 harboring SbmA assessed as reduction in microbial growth incubated for 20 to 22 hrs by CLSI based analysis; type: functional; details: time 20-22 hrs
[7] = Toxicity in Swiss albino mouse at 10 mg/kg, iv measured after 1 hr; type: organism-based; details: in vivo
Escherichia coli [8] = experiment: Antibacterial activity against multidrug-resistant Escherichia coli BAA2469 assessed as bacterial growth inhibition incubated for 20 to 22 hrs by CLSI based analysis; type: functional; details: time 20-22 hrs
[9] = AUClast in Swiss mouse plasma at 3 mg/kg, iv measured upto 24 hrs by LC-MS/MS analysis; type: ADME, organism-based; parameters: time < 24 hrs, dose 3 mg/kg, route iv
Escherichia coli [10] = experiment: Antibacterial activity against Escherichia coli ATCC 35218 infected in Swiss albino mouse model of Septicaemia infection assessed as log reduction in Septicaemia in blood at 1 mg/kg , iv preincubated for 4 hrs followed by bacterial infection and measured after 4 hrs post infection; type: functional; details: time 8 hrs
Escherichia coli [11] = experiment: Antibacterial activity against multidrug-resistant Escherichia coli MG1655 harboring tolC mutant assessed as bacterial growth inhibition incubated for 20 to 22 hrs by CLSI based analysis; type: functional; details: time 20-22 hrs
Klebsiella pneumoniae [12] = experiment: Antibacterial activity against multidrug-resistant Klebsiella pneumoniae B817 assessed as bacterial growth inhibition incubated for 20 to 22 hrs by CLSI based analysis; type: functional; details: time 20-22 hrs
Escherichia coli [13] = experiment: Antibacterial activity against Escherichia coli UT189 infected in Swiss albino mouse model of urinary tract infection assessed as log reduction in bacteremia in bladder at 10 mg/kg, iv pre-infected with bacteria for 24 hrs followed by compound treatment for every 24 hrs for 3 days; type: functional; details: time 3 day
Escherichia coli [14] = experiment: Antibacterial activity against Escherichia coli UT189 infected in Swiss albino mouse model of urinary tract infection assessed as log reduction in bacteremia in urine at 10 mg/kg, iv pre-infected with bacteria for 24 hrs followed by compound treatment for every 24 hrs for 3 days; type: functional; details: time 3 day
Staphylococcus aureus = experiment: Antibacterial activity against multidrug-resistant Staphylococcus aureus ATCC 33592 assessed as bacterial growth inhibition incubated for 20 to 22 hrs by CLSI based analysis; type: functional; details: time 20-22 hrs
[15] = Cytotoxicity against human HEK cells assessed as inhibition of cell growth at 30 uM incubated for 40 hrs by celltiterglo assay; type: toxicity, cell-based
Klebsiella pneumoniae [16] = experiment: Antibacterial activity against […] assessed as bacterial growth inhibition incubated for 20 to 22 hrs by CLSI based analysis; type: functional; details: time 20-22 hrs
Acinetobacter baumannii = experiment: Antibacterial activity against wild type Acinetobacter baumannii ATCC 19606 assessed as reduction in microbial growth incubated for 20 to 22 hrs by CLSI based analysis; type: functional; details: time 20-22 hrs
[17] = Volume of distribution at steady state in Swiss mouse at 3 mg/kg, iv measured upto 24 hrs by LC-MS/MS analysis; type: ADME, organism-based; details: in vivo, read-out: Vdss
Klebsiella pneumoniae [18] = experiment: Antibacterial activity against multidrug-resistant Klebsiella pneumoniae G199 assessed as bacterial growth inhibition incubated for 20 to 22 hrs by CLSI based analysis; type: functional; details: time 20-22 hrs
Klebsiella pneumoniae [19] = experiment: Antibacterial activity against multidrug-resistant Klebsiella pneumoniae BAA2473 assessed as bacterial growth inhibition incubated for 20 to 22 hrs by CLSI based analysis; type: functional; details: time 20-22 hrs
[20] = Metabolic stability in mouse kidney assessed as parent compound remaining measured after 4 hrs by UPLC-MS analysis; type: ADME, tissue-based; details: read-out: Stability
Pseudomonas aeruginosa [21] = experiment: Antibacterial activity against multidrug-resistant Pseudomonas aeruginosa PAO1 assessed as bacterial growth inhibition incubated for 20 to 22 hrs by CLSI based analysis; type: functional; details: time 20-22 hrs
Klebsiella pneumoniae [22] = experiment: Antibacterial activity against Klebsiella pneumoniae ATCC 13883 harboring SbmA assessed as reduction in microbial growth incubated for 20 to 22 hrs by CLSI based analysis; type: functional; details: time 20-22 hrs
THP-1 = experiment: Cytotoxicity against human THP-1 cells assessed as inhibition of cell growth at 30 uM incubated for 40 hrs by celltiterglo assay; type: functional, cell-based
[23] = Metabolic stability in mouse kidney assessed as parent compound remaining measured after 1 hrs by UPLC-MS analysis; type: ADME, tissue-based; details: read-out: Stability
[24] = Cmax in Swiss mouse kidney at 3 mg/kg, iv measured upto 24 hrs by LC-MS/MS analysis; type: ADME, organism-based; parameters: dose 3 mg/kg, time < 24 hrs, route iv
Escherichia coli [25] = experiment: Antibacterial activity against multidrug-resistant Escherichia coli IR45 assessed as bacterial growth inhibition incubated for 20 to 22 hrs by CLSI based analysis; type: functional; details: time 20-22 hrs
Escherichia coli [26] = experiment: Antibacterial activity against multidrug-resistant Escherichia coli MG1655 assessed as bacterial growth inhibition incubated for 20 to 22 hrs by CLSI based analysis; type: functional; details: time 20-22 hrs
Escherichia coli [27] = experiment: Antibacterial activity against […] assessed as bacterial growth inhibition incubated for 20 to 22 hrs by CLSI based analysis; type: functional; details: time 20-22 hrs
[28] = Drug excretion in urine of Swiss mouse at 3 mg/kg, iv measured upto 24 hrs by LC-MS/MS analysis; type: ADME, organism-based; details: read-out: Drug excretion
Klebsiella pneumoniae [29] = experiment: Antibacterial activity against multidrug-resistant Klebsiella pneumoniae BAA2146 assessed as bacterial growth inhibition incubated for 20 to 22 hrs by CLSI based analysis; type: functional; details: time 20-22 hrs
Escherichia coli [30] = experiment: Antibacterial activity against wild type Escherichia coli ATCC 35218 assessed as reduction in microbial growth incubated for 20 to 22 hrs by CLSI based analysis; type: functional; details: time 20-22 hrs
Pseudomonas aeruginosa [31] = experiment: Antibacterial activity against multidrug-resistant Pseudomonas aeruginosa PAO750 assessed as bacterial growth inhibition incubated for 20 to 22 hrs by CLSI based analysis; type: functional; details: time 20-22 hrs
Klebsiella pneumoniae [32] = experiment: Antibacterial activity against Klebsiella pneumoniae ATCC 13883 infected in Swiss albino mouse thigh infection model at 10 mg/kg, iv measured after 1 hr; type: functional, organism-based
[33] = Ratio of AUC in kidney to plasma in Swiss mouse at 3 mg/kg, iv measured upto 24 hrs by LC-MS/MS analysis; type: ADME, organism-based; details: read-out: Ratio AUC
Citrobacter freundii = experiment: Antibacterial activity against multidrug-resistant Citrobacter freundii ATCC 8090 assessed as bacterial growth inhibition incubated for 20 to 22 hrs by CLSI based analysis; type: functional; details: time 20-22 hrs
[34] = biological target: Voltage-gated inwardly rectifying potassium channel KCNH2 (Homo sapiens, UniProt Q12809); experiment: Inhibition of hERG; type: toxicity; details: human
[35] = Ratio of drug concentration in mouse blood to plasma; type: ADME, cell-free
[36] = Observed clearance Swiss mouse at 3 mg/kg, iv measured upto 24 hrs by LC-MS/MS analysis; type: ADME, organism-based; details: in vivo
[37] = Protein binding in human plasma assessed as free fraction; type: ADME, cell-free

Sequence of Voltage-gated inwardly rectifying potassium channel KCNH2 (Q12809 whole entry): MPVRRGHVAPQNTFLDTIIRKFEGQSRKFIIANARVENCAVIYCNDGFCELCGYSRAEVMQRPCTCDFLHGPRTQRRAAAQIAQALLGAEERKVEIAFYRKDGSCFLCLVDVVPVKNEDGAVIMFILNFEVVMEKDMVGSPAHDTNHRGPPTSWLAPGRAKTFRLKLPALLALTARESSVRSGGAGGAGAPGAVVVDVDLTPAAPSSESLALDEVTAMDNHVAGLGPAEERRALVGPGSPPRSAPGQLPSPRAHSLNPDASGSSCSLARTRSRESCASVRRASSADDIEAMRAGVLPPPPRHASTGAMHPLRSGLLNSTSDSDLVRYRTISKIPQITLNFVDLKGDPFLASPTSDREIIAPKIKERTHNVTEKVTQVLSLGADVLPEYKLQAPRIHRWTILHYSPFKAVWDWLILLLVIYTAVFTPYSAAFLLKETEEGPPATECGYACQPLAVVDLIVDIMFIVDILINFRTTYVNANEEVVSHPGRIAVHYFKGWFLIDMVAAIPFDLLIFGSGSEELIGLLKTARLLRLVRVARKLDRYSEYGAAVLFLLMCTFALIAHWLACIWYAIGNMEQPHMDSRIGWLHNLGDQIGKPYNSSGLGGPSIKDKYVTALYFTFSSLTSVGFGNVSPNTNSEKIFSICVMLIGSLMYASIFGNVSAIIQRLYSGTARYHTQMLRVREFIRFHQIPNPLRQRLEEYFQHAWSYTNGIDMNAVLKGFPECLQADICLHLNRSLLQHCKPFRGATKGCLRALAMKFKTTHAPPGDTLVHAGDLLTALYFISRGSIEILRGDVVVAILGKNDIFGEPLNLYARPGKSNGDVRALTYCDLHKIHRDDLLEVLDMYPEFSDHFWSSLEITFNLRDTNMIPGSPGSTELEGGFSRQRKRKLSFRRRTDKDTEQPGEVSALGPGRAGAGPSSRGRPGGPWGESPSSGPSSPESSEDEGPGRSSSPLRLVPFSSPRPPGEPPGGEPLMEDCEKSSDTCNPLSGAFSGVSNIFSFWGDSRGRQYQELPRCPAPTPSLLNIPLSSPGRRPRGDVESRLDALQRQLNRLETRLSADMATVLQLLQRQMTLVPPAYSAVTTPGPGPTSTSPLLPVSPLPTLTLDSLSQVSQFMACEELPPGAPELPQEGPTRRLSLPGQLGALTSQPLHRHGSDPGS

## CO[C@@H](CNC(=O)[C@H](NC(=O)[C@H](O)[C@H](C)O)[C@H](O)c1cncn1C)[C@H](O)[C@H](O)C(=O)N(C)[C@@H](Cc1ccccc1)C(=O)NCC(=O)N[C@H](C(=O)N[C@@H](CO)C(=O)N[C@H](C(=O)N[C@H](C(=O)N[C@@H](CC(=O)O)C(=O)N1CCC[C@H]1C(=O)NCc1cc(=O)c(O)cn1O)C(C)(C)C)C(C)(C)O)C(C)(C)O
[1]
  Cmax: 2420 ng/mL
Klebsiella pneumoniae [2]
  MIC: 4 µg/mL (≈ 2.76 µM)
Klebsiella pneumoniae [3]
  Activity: Active
[4]
  Kp at 24 h: 0.4
Enterobacter cloacae
  MIC: 0.25 µg/mL (≈ 0.173 µM)
[5]
  solubility: 8100 µg/mL (≈ 5600 µM)
Escherichia coli [6]
  MIC: 0.12 µg/mL
[7]
  Activity: Non-Toxic
Escherichia coli [8]
  MIC: 0.06 µg/mL (≈ 0.0415 µM)
[9]
  AUC(0-t) at 24 h: 2860 ng·h/mL
Escherichia coli [10]
  Activity: -3.8 log10CFU
Escherichia coli [11]
  MIC: 0.01 µg/mL (≈ 0.00691 µM)
Klebsiella pneumoniae [12]
  MIC: 0.03 µg/mL (≈ 0.0207 µM)
Escherichia coli [13]
  log(activity): 3.1
Escherichia coli [14]
  log(activity): 4.7
Staphylococcus aureus
  MIC: 4 µg/mL (≈ 2.76 µM)
[15]
  Activity: Non-Toxic
Klebsiella pneumoniae [16]
  MIC: 0.06 µg/mL (≈ 0.0415 µM)
Acinetobacter baumannii
  MIC: 0.03 µg/mL
[17]
  Vd: 0.25 L/kg
Klebsiella pneumoniae [18]
  MIC: 0.06 µg/mL (≈ 0.0415 µM)
Klebsiella pneumoniae [19]
  MIC: 4 µg/mL (≈ 2.76 µM)
[20]
  remaining at 4 h: 91%
Pseudomonas aeruginosa [21]
  MIC: > 32 µg/mL
Klebsiella pneumoniae [22]
  MIC: 16 µg/mL
THP-1
  Activity: inactive
[23]
  remaining at 1 h: 103%
[24]
  Cmax: 14200 ng/mL
Escherichia coli [25]
  MIC: 2 µg/mL (≈ 1.38 µM)
Escherichia coli [26]
  MIC: 0.03 µg/mL (≈ 0.0207 µM)
Escherichia coli [27]
  MIC: 0.06 µg/mL (≈ 0.0415 µM)
[28]
  dose excreted at 24 h: 65%
Klebsiella pneumoniae [29]
  MIC: 0.12 µg/mL (≈ 0.0829 µM)
Escherichia coli [30]
  MIC: 0.01 µg/mL
Pseudomonas aeruginosa [31]
  MIC: 32 µg/mL (≈ 22.1 µM)
Klebsiella pneumoniae [32]
  Activity: Active
[33]
  Kp at 24 h: 2.5
Citrobacter freundii
  MIC: 2 µg/mL (≈ 1.38 µM)
[34]
  inhibition (INH): Not Active
[35]
  blood plasma ratio: 4.5
[36]
  clearance: 13.5 mL/min/kg
[37]
  fraction unbound: 0.26

Reference: ChEMBL document CHEMBL5356971, “Optimization of the Antibacterial Spectrum and the Developability Profile of the Novel-Class Natural Product Corramycin” (J Med Chem, 2023)
